Results on five compounds are retold here after PubChem BioAssay (NCI).

Some test systems named below: IGROV1 ovarian; HS 578T breast; SR leukemia; HT29 colon; NCI-H522 lung; OVCAR-8 ovarian; ACHN renal; MALME-3M melanoma; MCF7 breast; NCI-H460 lung.
Assay in all cases: inhibition of tumour cell growth, NCI panel, 48 h

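Dose response: 5 concentrations. Exposure: 48 h. Format: 96-well plates. Endpoint: linear interpolation; highest concentration if not reached. TGI: concentration producing complete growth inhibition.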

For the compound `COc1ccc2c(c1)c(=O)c1c(NCCCN(C)CCCNc3ccc4c(=O)n(CCN(C)C)c(=O)n5c6ccc(OC)cc6c(=O)c3c45)ccc3c(=O)n(CCN(C)C)c(=O)n2c31`, the TGI with IGROV1 ovarian is 0.584 µM; in the experiment with HS 578T breast it was 1.73 µM; in the experiment with SR leukemia, 0.255 µM; in the experiment on HT29 colon, 1.28 µM; in the experiment with NCI-H522 lung, 0.544 µM; with OVCAR-8 ovarian it was 2.65 µM. In addition, the TGI in the experiment on ACHN renal was determined as 1.42 µM; in the experiment on MALME-3M melanoma it was 2.42 µM; in the experiment on MCF7 breast it was 1.12 µM; in the experiment with NCI-H460 lung it was 0.209 µM.

In the case of `O=C(Nc1ccccc1)c1cc(S(=O)(=O)Nc2n[nH]c(=O)[nH]2)c(SSc2cc(Cl)c(C(=O)Nc3ccccc3)cc2S(=O)(=O)Nc2n[nH]c(=O)[nH]2)cc1Cl`, the TGI in the experiment with IGROV1 ovarian, in the experiment with HS 578T breast, in the experiment on SR leukemia, in the experiment on HT29 colon, in the experiment with NCI-H522 lung and with OVCAR-8 ovarian was over 100 µM each time. Besides, the TGI in the experiment on ACHN renal, with MALME-3M melanoma, with MCF7 breast and in the experiment with NCI-H460 lung was over 100 µM in each case.

Regarding `Cc1ccc(C2(N3CCCC3)OC(C)(C)c3cccc4cccc2c34)cc1` (stereo not given), the TGI with IGROV1 ovarian came to 29.8 µM; with HS 578T breast it was 31.8 µM; in the experiment on SR leukemia, 67.6 µM; with HT29 colon, 26.2 µM; in the experiment with NCI-H522 lung, 25.6 µM; in the experiment with OVCAR-8 ovarian, 29.8 µM. Further, the TGI in the experiment with ACHN renal amounted to 29.9 µM; with MALME-3M melanoma it was 41.4 µM; in the experiment on MCF7 breast it was 32.5 µM; with NCI-H460 lung, 26.3 µM.

As for `CC(C)=NNc1cnnc2ccc([N+](=O)[O-])cc12`, the TGI with IGROV1 ovarian was over 100 µM; in the experiment on HS 578T breast it was over 100 µM; in the experiment on SR leukemia, over 100 µM; in the experiment with HT29 colon, over 100 µM; with NCI-H522 lung, 52 µM; in the experiment on OVCAR-8 ovarian, over 100 µM. Moreover, the TGI with ACHN renal, with MALME-3M melanoma, in the experiment with MCF7 breast and in the experiment on NCI-H460 lung was over 100 µM in each case.

As for `COC(=O)c1c(O)ccc2c1c1c(n2Cc2ccc(OC)cc2)C(=O)c2ccccc2C1=O`, the TGI was found to be 21.4 µM in the experiment on IGROV1 ovarian; 58.1 µM with HS 578T breast; 2.92 µM in the experiment with SR leukemia; 8.55 µM in the experiment with HT29 colon; 17.1 µM with NCI-H522 lung; 11.7 µM in the experiment with OVCAR-8 ovarian. In addition, the TGI in the experiment with ACHN renal was 12.6 µM; in the experiment on MALME-3M melanoma it was 64.3 µM; with MCF7 breast, 26.7 µM; in the experiment with NCI-H460 lung, 33.3 µM.
